The term ED50 denotes the dose that gives a 50% effect, or the effect in half of the subjects. A high value points to a need for a large dose.

Our source for the ED50 and MIC values is ChEMBL document CHEMBL1124186, “Synthesis and evaluation of tylosin-related macrolides modified at the aldehyde function: a new series of orally effective antibiotics” (1988).

Values after ≈ are worked out from the molar mass of the structure shown.

Assay [1] concerns Streptococcus pyogenes. In words: In vivo effective dose against experimental infections in rodent caused by Streptococcus pyogenes C203 when administered subcutaneously. The class given is functional. To be noted: sc.
Assay [2] has as its system Streptococcus pyogenes. In words: In vivo effective dose against experimental infections in rodent caused by Streptococcus pyogenes C203 when administered orally. The assay is classed as functional. To be noted: po.
The test system of another assay is Haemophilus influenzae. In words: In vitro antimicrobial activity against Haemophilus influenzae. The assay is classed as functional.
The next assay concerns Enterococcus faecium. In words: In vitro antimicrobial activity against Streptococcus faecium X66. The class given is functional, streptococcus fae-cium.
The next assay relates to Streptococcus pneumoniae. Nature of the assay: In vitro antimicrobial activity against Streptococcus pneumoniae. The assay is classed as functional.
For assay [3], the system named is Staphylococcus epidermidis. Nature of the assay: In vitro antimicrobial activity against Staphylococcus epidermidis EPI1. The class given is functional.
Assay [4] deals with Streptococcus pyogenes. Nature of the assay: In vitro antimicrobial activity against Streptococcus pyogenes C203. The class given is functional.
A further assay has as its system Staphylococcus aureus. Nature of the assay: In vitro antimicrobial activity against Staphylococcus aureus X1. The class given is functional.

Turning to `CC[C@H]1OC(=O)C[C@@H](O)[C@H](C)[C@@H](O[C@@H]2O[C@H](C)[C@@H](O[C@H]3C[C@@](C)(O)[C@@H](O)[C@H](C)O3)[C@H](N(C)C)[C@H]2O)[C@@H](CCO)C[C@@H](C)C(=O)/C=C/C(C)=C/[C@@H]1CO[C@@H]1O[C@H](C)[C@@H](O)[C@@H](O)[C@H]1OC`, the median effective dose (ED50) in the assay with Streptococcus pyogenes [1] is > 10 mg/kg; in the assay with Streptococcus pyogenes [2], > 100 mg/kg. Moreover, the MIC in the assay on Haemophilus influenzae was > 128 µg/mL; against Enterococcus faecium, 128 µg/mL (≈ 142 µM); in the assay with Streptococcus pneumoniae, 32 µg/mL (≈ 35.4 µM); in assay [3], 4 µg/mL (≈ 4.42 µM); against Streptococcus pyogenes [4] it was 4 µg/mL (≈ 4.42 µM); in the assay with Staphylococcus aureus, 16 µg/mL (≈ 17.7 µM).
